We go through 27 compounds from US20250195521A1 (Revolution Medicines, Inc., priority 2020, published 2025).

A word on the EC50: it is the concentration needed to bring the measured effect to its halfway point.

In the first assay the test system is K-Ras G12C (NCI-H358 cells). Put plainly: Potency assay: pERK in NCI-H358 cells. The following applies: Homo sapiens, NCI-H358, 4 h, read-out: pERK EC50 (H358 KRAS G12C). The assay is classed as cell-based, human. How it is done:
The purpose of this assay is to measure the ability of test compounds to inhibit K-Ras in cells. […] This procedure measures a decrease in cellular pERK in response to test compounds. The procedure described below in NCI-H358 cells is applicable to K-Ras G12C.
Note: This protocol may be executed substituting other cell lines to characterize inhibitors of other RAS variants, including, for example, AsPC-1 (K-Ras G12D), Capan-1 (K-Ras G12V), or NCI-H1355 (K-Ras G13C).
NCI-H358 cells were grown and maintained using media and procedures recommended by the ATCC. On the day prior to compound addition, cells were plated in 384-well cell culture plates (40 μl/well) and grown overnight in a 37° C., 5% CO2 incubator. Test compounds were prepared in 10, 3-fold dilutions in DMSO, with a high concentration of 10 mM. On the day of assay, 40 nL of test compound was added to each well of cell culture plate using an Echo550 liquid handler (LabCyte®). Concentrations of test compound were tested in duplicate. After compound addition, cells were incubated 4 hours at 37° C., 5% CO2. Following incubation, culture medium was removed and cells were washed once with phosphate buffered saline.
In some experiments, cellular pERK level was determined using the AlphaLISA SureFire Ultra p-ERK1/2 Assay Kit (PerkinElmer). Cells were lysed in 25 μL lysis buffer, with shaking at 600 RPM at room temperature. […] After a 2-hour incubation in the dark, 5 μL donor mix was added, plate was sealed, and incubated 2 hours at room temperature. Signal was read on an Envision plate reader (PerkinElmer) using standard AlphaLISA settings. Analysis of raw data was carried out in Excel (Microsoft) and Prism (GraphPad). Signal was plotted vs. the decadal logarithm of compound concentration, and IC50 was determined by fitting a 4-parameter sigmoidal concentration response model.
In other experiments, cellular pERK was determined by In-Cell Western. […] Fixed cells were washed 4 times for 5 minutes with TBS containing 0.1% Triton X-100 (TBST) and then blocked with 100 μL Odyssey blocking buffer (LI-COR) for 60 minutes at room temperature. Primary antibody (PERK, CST-4370, Cell Signaling Technology) was diluted 1:200 in blocking buffer, and 50 μL was added to each well and incubated overnight at 4° C. Cells were washed 4 times for 5 minutes with TBST. Secondary antibody (IR-800CW rabbit, LI-COR, diluted 1:800) and DNA stain DRAQ5 (LI-COR, diluted 1:2000) were added and incubated 1-2 hours at room temperature. Cells were washed 4 times for 5 minutes with TBST. Plates were scanned on a Li—COR Odyssey CLx Imager. Analysis of raw data was carried out in Excel (Microsoft) and Prism (GraphPad). Signal was plotted vs. the decadal logarithm of compound concentration, and IC50 was determined by fitting a 4-parameter sigmoidal concentration response model.
On to `C=CC(=O)N1CC[C@H](C(=O)N(C)[C@H](C(=O)N[C@H]2Cc3cc(OC(=O)N(C)CC(=O)O)cc(c3)-c3ccc4c(c3)c(c(-c3ccccc3CCOC)n4CC)CC(C)(C)COC(=O)[C@@H]3CCCN(N3)C2=O)C(C)C)C1` [Compound A78], for which the EC50 was less than 5 µM.

On to `CCn1c(-c2cccnc2[C@H](C)OC)c2c3cc(ccc31)-c1csc(n1)C[C@H](NC(=O)[C@H](C(C)C)N(C)C(=O)N1CC(S(=O)(=O)NC)C1)C(=O)N1CCC[C@H](N1)C(=O)OCC(C)(C)C2` [Compound A549], for which the EC50 was less than 5 µM.

The same assay, now with this note: Homo sapiens; NCI-H358 cells, 4 hours; read-out: pERK EC50 (H358 KRAS G12C).
As to `C=C[C@@H]1C[C@]1(N)C(=O)N(C)[C@H](C(=O)N[C@H]1Cc2cc(O)cc(c2)-c2ccc3c(c2)c(c(-c2cccnc2[C@H](C)OC)n3CC)CC(C)(C)COC(=O)[C@@H]2CCCN(N2)C1=O)C(C)C` [Compound A149], the EC50 is less than 5 µM.

For the compound `CCn1c(-c2cccnc2[C@H](C)OC)c2c3cc(ccc31)-c1csc(n1)C[C@H](NC(=O)[C@H](C(C)C)N(C)C(=O)N1CC(C(C)(C)OC)C1)C(=O)N1CCC[C@H](N1)C(=O)OCC(C)(C)C2` (atropisomer, axis not shown) [Compound A614], the EC50 was less than 5 µM.

For `CCn1c(-c2cccnc2[C@H](C)OC)c2c3cc(ccc31)-c1csc(n1)C[C@H](NC(=O)[C@H](C(C)C)N(C)C(=O)N1CC(N)(C#N)C1)C(=O)N1CCC[C@H](N1)C(=O)OCC(C)(C)C2` [Compound A456], the EC50 was less than 5 µM.

With `CCn1c(-c2cnccc2COC)c2c3cc(ccc31)-c1cc(O)cc(c1)C[C@H](NC(=O)[C@H](C(C)C)N(C)S(C)(=O)=O)C(=O)N1CCC[C@H](N1)C(=O)OCC(C)(C)C2` [Compound A57, (2S)—N-[(8S,14S)-22-ethyl-4-hydroxy-21-[4-(methoxymethyl)pyridin-3-yl]-18,18-dimethyl-9,15-dioxo-16-oxa-10,22,28-triazapentacyclo [18.5.2.1^2,6.1^10,14.0^23,27]nonacosa-1 (26),2,4,6 (29),20,23 (27),24-heptaen-8-yl]-3-methyl-2-(N-methylmethanesulfonamido) butanamide], the half-maximal effective concentration (EC50) is less than 5 µM.

As to `CCn1c(-c2cnccc2COC)c2c3cc(ccc31)-c1cc(O)cc(c1)C[C@H](NC(=O)[C@H](C(C)C)N(C)C(=O)[C@H]1CCN(S(=O)(=O)N3CC(N)C3)C1)C(=O)N1CCC[C@H](N1)C(=O)OCC(C)(C)C2` [Compound A35], the EC50 is less than 5 µM.

Consider `CCn1c(-c2cc(N3CCN(C)CC3)cnc2[C@H](C)OC)c2c3cc(ccc31)-c1csc(n1)C[C@H](NC(=O)[C@H](C1CCCC1)N(C)C(=O)N(C)C)C(=O)N1CCC[C@H](N1)C(=O)OCC(C)(C)C2` [Compound A526], for which the EC50 is less than 5 µM.

Regarding `CCn1c(-c2cccnc2[C@H](C)OC)c2c3cc(ccc31)-c1cc(O)cc(c1)C[C@H](NC(=O)[C@H](C(C)C)N(C)C(=O)[C@@H]1OC[C@@H]3CCC[C@@H]31)C(=O)N1CCC[C@H](N1)C(=O)OCC(C)(C)C2` [Compound A407], the EC50 is less than 5 µM.

As to `CCn1c(-c2cccnc2[C@H](C)OC)c2c3cc(ccc31)-c1csc(n1)C[C@H](NC(=O)[C@H](C(C)C)N(C)C(=O)N(C)CC(C)C)C(=O)N1CCC[C@H](N1)C(=O)OCC(C)(C)C2` [Compound A332], the EC50 is less than 5 µM.

For the compound `CCn1c(-c2cccnc2[C@H](C)OC)c2c3cc(ccc31)-c1csc(n1)C[C@H](NC(=O)[C@H](C1CCCC1)N(C)C(C)=O)C(=O)N1CCC[C@H](N1)C(=O)OCC(C)(C)C2` [Compound A141], the EC50 is less than 5 µM.

For the compound `CCn1c(-c2cccnc2[C@H](C)OC)c2c3cc(ccc31)-c1csc(n1)C[C@H](NC(=O)[C@H](C(C)C)N(C)C(=O)N(C)C1CC1)C(=O)N1CCC[C@H](N1)C(=O)OCC(C)(C)C2` [Compound A353], the EC50 was less than 5 µM.

In the case of `CCn1c(-c2cnccc2COC)c2c3cc(ccc31)-c1cc(O)cc(c1)C[C@H](NC(=O)[C@H]([C@@H](C)OC)N(C)C(C)=O)C(=O)N1CCC[C@H](N1)C(=O)OCC(C)(C)C2` [Compound A76], the EC50 was less than 5 µM.

`CCn1c(-c2cccnc2[C@H](C)OC)c2c3cc(ccc31)-c1cc(O)cc(c1)C[C@H](NC(=O)[C@H](C(C)C)N(C)C(=O)[C@H]1CCC[C@H]1N)C(=O)N1CCC[C@H](N1)C(=O)OCC(C)(C)C2` (atropisomer, axis not shown) [Compound A131]: the EC50 is less than 5 µM.

Consider `CCn1c(-c2cccnc2[C@H](C)OC)c2c3cc(ccc31)-c1csc(n1)C[C@H](NC(=O)[C@H](C(C)C)N(C)C(=O)N1CC([C@H](C)NC)C1)C(=O)N1CCC[C@H](N1)C(=O)OCC(C)(C)C2` [Compound A535], for which the EC50 was less than 5 µM.

Consider `CCn1c(-c2cccnc2[C@H](C)OC)c2c3cc(ccc31)-c1cc(O)cc(c1)C[C@H](NC(=O)[C@H](C(C)C)N(C)C(=O)C1CC13CCNC3)C(=O)N1CCC[C@H](N1)C(=O)OCC(C)(C)C2` (stereo partly drawn) [Compound A148], for which the EC50 was less than 5 µM.

Turning to `CCn1c(-c2cccnc2[C@H](C)OC)c2c3cc(ccc31)-c1cc(O)cc(c1)C[C@H](NC(=O)[C@H](C(C)C)N(C)C(=O)[C@@H]1CCNC1)C(=O)N1CCC[C@H](N1)C(=O)OCC(C)(C)C2` [Compound A129], the EC50 is less than 5 µM.

On to `CCn1c(-c2cccnc2[C@H](C)OC)c2c3cc(ccc31)-c1csc(n1)C[C@H](NC(=O)[C@H](C(C)C)N(C)C(=O)N1CCOC[C@@H]1c1ccccc1)C(=O)N1CCC[C@H](N1)C(=O)OCC(C)(C)C2` [Compound A604], for which the concentration giving a half-maximal response (EC50) was less than 5 µM.

As for `CCn1c(-c2cccnc2[C@H](C)OC)c2c3cc(ccc31)-c1csc(n1)C[C@H](NC(=O)[C@H](C(C)C)N(C)C(=O)N1CC(n3nc(C)cc3C)C1)C(=O)N1CCC[C@H](N1)C(=O)OCC(C)(C)C2` [Compound A297], the EC50 was less than 5 µM.

With `CCn1c(-c2cccnc2[C@H](C)OC)c2c3cc(ccc31)-c1csc(n1)C[C@H](NC(=O)[C@H](C(C)C)N(C)C(=O)N1CCC3(CCN(C)CC3)C1)C(=O)N1CCC[C@H](N1)C(=O)OCC(C)(C)C2` [Compound A565], the EC50 is less than 5 µM.

As for `CCn1c(-c2cccnc2[C@H](C)OC)c2c3cc(ccc31)-c1csc(n1)C[C@H](NC(=O)[C@H](C(C)C)N(C)C(=O)N1CC3(CN(C)CCO3)C1)C(=O)N1CCC[C@H](N1)C(=O)OCC(C)(C)C2` [Compound A499], the EC50 was less than 5 µM.

Regarding `CCN1C[C@@H](C(=O)N(C)[C@H](C(=O)N[C@H]2Cc3cc(O)cc(c3)-c3ccc4c(c3)c(c(-c3cnccc3COC)n4CC)CC(C)(C)COC(=O)[C@@H]3CCCN(N3)C2=O)C(C)C)CC1=O` [Compound A262], the EC50 is less than 5 µM.

Take `CCn1c(-c2cccnc2[C@H](C)OC)c2c3cc(ccc31)-c1cc(O)cc(c1)C[C@H](NC(=O)[C@H](C(C)C)N(C)C(=O)C1CC3CC1CN3)C(=O)N1CCC[C@H](N1)C(=O)OCC(C)(C)C2` (stereo partly drawn) [Compound A133]: the EC50 was less than 5 µM.

Turning to `CCn1c(-c2cccnc2[C@H](C)OC)c2c3cc(ccc31)-c1csc(n1)C[C@H](NC(=O)[C@H](C(C)C)N(C)C(=O)N1C[C@H](N)[C@@H](F)C1)C(=O)N1CCC[C@H](N1)C(=O)OCC(C)(C)C2` [Compound A567], the EC50 is less than 5 µM.

Regarding `CCn1c(-c2cccnc2[C@H](C)OC)c2c3cc(ccc31)-c1cc(O)cc(c1)C[C@H](NC(=O)[C@H](C(C)C)N(C)C(=O)[C@@H]1OCC[C@@H]1c1cccnc1)C(=O)N1CCC[C@H](N1)C(=O)OCC(C)(C)C2` [Compound A546], the EC50 is less than 5 µM.

Turning to `CCn1c(-c2cnccc2COC)c2c3cc(ccc31)-c1cc(O)cc(c1)C[C@H](NC(=O)[C@H](C(C)C)N(C)C(=O)OC1CN(C)C1)C(=O)N1CCC[C@H](N1)C(=O)OCC(C)(C)C2` [Compound A101], the EC50 is less than 5 µM.

Staying with this assay, now noted: read-out: pERK EC50 (H358 KRAS G12C); NCI-H358 cells, 4 hours.
For the compound `C=CC(=O)N1CC[C@H](C(=O)N(C)[C@H](C(=O)N[C@H]2Cc3cc(N)cc(c3)-c3ccc4c(c3)c(c(-c3ccccc3COC)n4CC)CC(C)(C)COC(=O)[C@@H]3CCCN(N3)C2=O)C(C)C)C1` [Compound A42], the EC50 was less than 5 µM.
